Results reported in patent US6835382B2, “Ii peptide therapeutics to enhance antigen presentation” (University of Massachusetts, priority 1996, dated 2004).
Positions of bridges follow the written chain, without caps; N, C: chain ends. Non-standard residues stand in square brackets, D forms with d. No end group written: not given here. hArg = N=C(N)NCCCC[C@H](N)C(=O)O; Cit = NC(=O)NCCC[C@H](N)C(=O)O

Molecular target: T1, murine E^d MHC class II allele (Mus musculus, UniProt P01904+P01915)
T1 sequence (P01904 26-255): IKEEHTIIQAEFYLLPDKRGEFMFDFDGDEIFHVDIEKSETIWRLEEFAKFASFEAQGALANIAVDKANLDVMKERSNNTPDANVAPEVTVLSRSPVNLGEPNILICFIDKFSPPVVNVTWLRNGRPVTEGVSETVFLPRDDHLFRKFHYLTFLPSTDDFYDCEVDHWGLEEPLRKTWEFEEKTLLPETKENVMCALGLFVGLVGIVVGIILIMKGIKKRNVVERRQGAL
T1 sequence (P01915 27-264 limits assumed): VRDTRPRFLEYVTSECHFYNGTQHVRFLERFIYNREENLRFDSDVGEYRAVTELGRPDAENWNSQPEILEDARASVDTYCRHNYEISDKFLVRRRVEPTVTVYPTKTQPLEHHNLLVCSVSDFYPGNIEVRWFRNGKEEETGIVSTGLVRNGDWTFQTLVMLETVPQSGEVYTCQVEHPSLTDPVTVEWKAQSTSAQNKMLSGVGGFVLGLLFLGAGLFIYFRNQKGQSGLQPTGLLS
Test: processed antigen assay, E^d allele (APC pulsed with native HEL)
Format: cell-based
Set-up: The A20 and CH27 B cell lymphoma lines express H-2^d and H-2^k alleles, respectively; endogenous in cells; host or cells: A20 B cell lymphoma (mitomycin C-treated or paraformaldehyde-fixed)
Details: Table 31; native HEL prepulse 10 μM; AE peptide 64 μM; supernatant dilution 1:4
Protocol: In a third type of assay, the “processed antigen assay”, certain of the AE101 series of peptides inhibit stimulation of specific T cell hybridomas by antigenic peptides which are derived from the endogenous processing of a native protein antigen. This assay, which is related to the peptide prepulse assay, is performed by incubating APC with native protein antigen for 8 h, after which the pulsed APC are washed and treated with mitomycin C. Those pulsed APC are then combined with AE101 series peptides and T cell hybridomas and are incubated for 24 h. After that incubation, an aliquot of the culture supernatant is transferred to a second culture to measure T cell stimulation, as reflected in the effect of released interleukins on the growth of an interleukin-dependent, indicator cell line. During the 8 h incubation with native protein antigen, the protein antigen is taken into the APC. The native protein enters the processing pathway within the APC, where it is enzymatically cleaved to peptide fragments. Those peptide fragments with high affinity for the particular MHC class II molecules produced by the APC form antigenic peptide/MHC class II complexes which are transported to the cell surface. At the cell surface, the MHC class II molecules are contacted by the AE101 peptides, which cause the release of the antigenic peptide by the same mechanism proposed for the “peptide prepulse” assay above.
The “processed antigen assay” was carried out under essentially the same conditions as the “peptide prepulse assay”, with the following modifications. Untreated APC were incubated at 1×10^6/mL in 24-well plates (1 mL/well) with native protein antigen for 8 h. Following that incubation, the pulsed APC were washed, treated with mitomycin C, and washed again. AE101 series peptide was added at 64 μM, 16 μM, 4 μM, and 1 μM concentrations for 24 h in the presence of the T cell hybridoma specific for the antigenic peptide. Interleukin release from these cultures was measured by proliferation of HT-2 cells to interleukins in supernatants transferred from the primary culture. The baseline T cell response was measured by culturing T hybridoma cells with the native antigen-prepulsed APC in the absence of AE101 series peptides.
The “processed antigen assay” was carried out under essentially the same conditions as the “peptide prepulse” assay, with the following modifications. Untreated APC were incubated at 1×10^6/mL in 24-well plates (1 mL/well) with native protein antigen for 8 h. Following incubation, the pulsed APC were washed, treated with mitomycin C, and were washed again. The assay conditions were then as described for “peptide prepulse” above. The baseline T cell response was measured by culturing T hybridoma cells with the native antigen-prepulsed APC in the absence of AE101 peptides.
Table 2.9: Activities of substitution series at Leucine^80 in AE114 in a processed antigen assay. […] The results in this assay constitute, relatively, a mirror image of the result in the simultaneous assay (Example 1, Table 7) and parallel those of the antigenic peptide prepulse assay (Example 5, Table 24). Untreated APC were incubated with native HEL, instead of antigenic peptide, for 8 h. After incubation, the pulsed cells were washed and mitomycin C treated before being cocultured with AE-peptides and T cell hybridomas. Wells containing only T cells and native HEL-prepulsed APC were used to determine the Baseline response, or 1, in the absence of AE peptides. The concentration of AE peptide used was 64 μM for these assays. The supernatant dilutions used in the HT-2 cell assay were 1:4 (first value) and 1:8 (second value).

Point of comparison: Ac-LR Orn K HArg PK-NH2 [AE340], “T cell response relative to baseline (None = 1.00), E^d” value 0.16. Against it:
- Ac-LRMKNPF-NH2 [AE350] — higher, 0.56
- Ac-A[Cit]NKNPK-NH2 [AE351] — higher, 0.87

Same assay, conditions: Table 32; native HEL prepulse 20 μM; AE peptide 64 μM; supernatant dilution 1:4

Point of comparison: Ac-LRMMYP[Cit]-NH2 [AE367], “T cell response relative to baseline (None = 1.0), E^d” value 0.69. Against it:
- Ac-LR HArg KYP Cit-NH2 [AE366] — lower, 0.53
- Ac-FK HArg MYP Cit-NH2 [AE371] — lower, 0.61
- Ac-LK HArg KYPK-NH2 [AE363] — higher, 0.75
- Ac-L[hArg]MKYPK-NH2 [AE360] — lower, 0.64
- Ac-L[hArg]LKYPK-NH2 [AE361] — lower, 0.51
- Ac-LRMKYPN-NH2 [AE370] — lower, 0.55
- Ac-LRMKYP[Cit]-NH2 [AE364] — lower, 0.56
- Ac-LR HArg MYPK-NH2 [AE365] — lower, 0.65
- Ac-LKMKYPK-NH2 [AE362] — lower, 0.58
- Ac-LRLKYPN-NH2 [AE368] — lower, 0.55

Same assay, conditions: Table 34; AE peptide 64 μM; native HEL 10 μM prepulse; supernatant 1:8

Point of comparison: “cyclic LRMKLPK (bridge (positions not given here); also: cyclic, ring type not given here) [AE381, “head-to-tail” cyclization from the amino-terminus to the carboxyl-terminus of AE114]”, “Activity in processed antigen assay, E^d (baseline = 1.0)” value 0.18. Against it:
- Ac-LRMKLPK (lactam 4-C) [AE382] — higher, 0.61
